Values of other authors as cited in patent US20150125548A1, “COMBINATION NUTRITIONAL AND NUTRACEUTICAL PRODUCTS” (Requis Pharmaceuticals Inc., priority 2011, published 2015).

Experiments:
[1] = after absorption
[2] = molecular target: tryptophan hydroxylase (Mus musculus, UniProt Q8CGV2); conditions: 10 mM magnesium chloride added together with 1 mM ATP; 100,000 g supernatant from mouse midbrain
Sequence of tryptophan hydroxylase (Q8CGV2 whole entry): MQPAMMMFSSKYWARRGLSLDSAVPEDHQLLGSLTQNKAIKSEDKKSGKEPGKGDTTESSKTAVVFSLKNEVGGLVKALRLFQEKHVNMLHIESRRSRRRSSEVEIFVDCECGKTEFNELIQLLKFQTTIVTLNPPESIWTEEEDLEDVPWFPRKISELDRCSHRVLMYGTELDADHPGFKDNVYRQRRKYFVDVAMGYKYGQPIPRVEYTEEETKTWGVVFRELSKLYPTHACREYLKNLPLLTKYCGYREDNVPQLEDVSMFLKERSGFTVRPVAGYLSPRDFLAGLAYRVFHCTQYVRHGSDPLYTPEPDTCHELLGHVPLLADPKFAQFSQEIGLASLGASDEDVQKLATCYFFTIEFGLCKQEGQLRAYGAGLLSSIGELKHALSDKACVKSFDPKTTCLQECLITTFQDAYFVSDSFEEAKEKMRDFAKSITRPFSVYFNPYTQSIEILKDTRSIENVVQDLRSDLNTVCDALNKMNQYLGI

| fraction present in blood as the free amino acid (rest bound to plasma proteins) [1] | Structure (SMILES) | increase of enzyme activity above control [2] |
| --- | --- | --- |
| around 20% | N[C@@H](Cc1c[nH]c2ccccc12)C(=O)O [tryptophan, (2S)-2-amino-3-(1H-indol-3-yl)propanoic acid] | – |
| – | [Cl-].[Cl-].[Mg+2] [magnesium chloride] | 50-70% |
